Experimental data as given in US9623125B2, “Controlled synthesis of polyglutamates with low polydispersity and versatile architectures” (Fundacion de la Comunidad Valenciana “Centro De …, priority 2011, dated 2017).

Assay: Stability of NCA under different storage conditions
Assay type: physicochemical
Design: key: a “−” symbol means the monomer was found already polymerized/degraded; “+” means monomer was found to be stable
Experimental: Absence of HCl in the purified NCAs was confirmed by means of a silver nitrate solution. The presence of HCl can be identified by the precipitation of silver chloride when some drops of a solution 1M of AgNO3 are added to a solution of the monomer. The purity of the NCA is the main criteria to ensure long term storage. This issue was corroborated with stability studies of the NCA under different storage conditions.

Stability of NCA on storage (4° C., 5 d): + | Stability of NCA on storage (4° C., 6 d): + | Stability of NCA on storage (4° C., 8d): − | Stability of NCA on storage (4° C., 10 d): − | Stability of NCA on storage (4° C., 11 d): − | Stability of NCA on storage (4° C., 20 d): − | Stability of NCA on storage (4° C., 50 d): − | Stability of NCA on storage (4° C./Ar, 5 d): + | Stability of NCA on storage (4° C./Ar, 6 d): + | Stability of NCA on storage (4° C./Ar, 7 d): + | Stability of NCA on storage (4° C./Ar, 8d): + | Stability of NCA on storage (4° C./Ar, 10 d): + | Stability of NCA on storage (4° C./Ar, 11 d): + | Stability of NCA on storage (R.T, 5 d): − | Stability of NCA on storage (R.T, 6 d): − | Stability of NCA on storage (R.T, 7 d): − | Stability of NCA on storage (R.T, 8d): − | Stability of NCA on storage (R.T, 10 d): − | Stability of NCA on storage (R.T, 11 d): − | Stability of NCA on storage (R.T, 20 d): − | Stability of NCA on storage (R.T, 50 d): − | Stability of NCA on storage (R.T/Ar, 6 d): − | Stability of NCA on storage (R.T/Ar, 7 d): − | Stability of NCA on storage (R.T/Ar, 8d): − | Stability of NCA on storage (R.T/Ar, 10 d): − | Stability of NCA on storage (R.T/Ar, 11 d): − | Stability of NCA on storage (R.T/Ar, 20 d): − | Stability of NCA on storage (R.T/Ar, 50 d): − | Stability of NCA on storage (−23° C., 5 d): + | Stability of NCA on storage (−23° C., 6 d): + | Stability of NCA on storage (−23° C., 7 d): + | Stability of NCA on storage (−23° C., 8d): + | Stability of NCA on storage (−23° C., 10 d): + | Stability of NCA on storage (−23° C., 11 d): + | Stability of NCA on storage (−23° C., 20 d): + | Stability of NCA on storage (−23° C., 50 d): + | Stability of NCA on storage (−23° C./Ar, 5 d): + | Stability of NCA on storage (−23° C./Ar, 6 d): + | Stability of NCA on storage (−23° C./Ar, 7 d): + | Stability of NCA on storage (−23° C./Ar, 8d): + | Stability of NCA on storage (−23° C./Ar, 10 d): + | Stability of NCA on storage (−23° C./Ar, 11 d): + | Stability of NCA on storage (−23° C./Ar, 20 d): + | Stability of NCA on storage (−23° C./Ar, 50 d): +
Compound: O=C(CCC1NC(=O)OC1=O)OCc1ccccc1 (centres unmarked) [NCA, Benzyl 3-(2,5-dioxooxazol-4-il)propanoate]
